Test results taken from the supplement of paper PMC10307832.

What was measured:
Assay in all cases: relative viability (nuclei count vs DMSO), 5 days (fraction); higher = more cells survive
NCI-H322M = tested on: NCI-H322M
Procedure, shortened: (§1)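 Relative viability equals treated-well nuclei counts divided by vehicle-well nuclei counts. Counts came from 4× images of lung cancer cell lines grown in 1536-well plates for 5 days after pin-tool dosing on the day after seeding. Dosing used one drug alone or a fixed anchor-drug dose plus five library-drug doses (not always all listed) in √10 steps, and values are medians of duplicate plates.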

NCI-H460 = tested on: NCI-H460
Procedure, shortened: as §1

NCI-H1792 = tested on: NCI-H1792
Procedure, shortened: as §1

NCI-H522 = tested on: NCI-H522
Procedure, shortened: as §1

NCI-H1651 = tested on: NCI-H1651
Procedure, shortened: as §1

NCI-H650 = tested on: NCI-H650
Procedure, shortened: as §1

NCI-H2347 = tested on: NCI-H2347
Procedure, shortened: as §1

NCI-H1355 = tested on: NCI-H1355
Procedure, shortened: as §1

LXF-289 = tested on: LXF-289
Procedure, shortened: as §1

NCI-H441 = tested on: NCI-H441
Procedure, shortened: as §1

NCI-H2170 = tested on: NCI-H2170
Procedure, shortened: as §1

PC-14 = tested on: PC-14
Procedure, shortened: as §1

NCI-H520 = tested on: NCI-H520
Procedure, shortened: as §1

RERF-LC-KJ = tested on: RERF-LC-KJ
Procedure, shortened: as §1

NCI-H1915 = tested on: NCI-H1915
Procedure, shortened: as §1

NCI-H596 = tested on: NCI-H596
Procedure, shortened: as §1

SK-MES-1 = tested on: SK-MES-1
Procedure, shortened: as §1

SW 900 = tested on: SW 900
Procedure, shortened: as §1

LCLC-103H = tested on: LCLC-103H
Procedure, shortened: as §1

NCI-H661 = tested on: NCI-H661
Procedure, shortened: as §1

NCI-H1563 = tested on: NCI-H1563
Procedure, shortened: as §1

NCI-H3122 = tested on: NCI-H3122
Procedure, shortened: as §1

NCI-H1755 = tested on: NCI-H1755
Procedure, shortened: as §1

For `COc1cc(N2CCC(C(N)=O)CC2)ccc1Nc1nc(N)c(Cl)c(Nc2ccccc2S(=O)(=O)C(C)C)n1` [HG-5-88-01] + Nc1nc2[nH]cc(CCc3ccc(C(=O)N[C@@H](CCC(=O)O)C(=O)O)cc3)c2c(=O)[nH]1 [Pemetrexed] (partner 0.2 µM), the relative viability (NCI-H322M; first compound 0.04 µM) was 0.638, the relative viability (NCI-H322M; first compound 0.1265 µM) was 0.536 and the relative viability (NCI-H322M; first compound 0.4 µM) was 0.607. The relative viability (NCI-H322M; first compound 1.265 µM) was 0.55, the relative viability (NCI-H322M; first compound 4 µM) was 0.509 and the relative viability (NCI-H460; first compound 0.04 µM) was 0.0629. For the same molecule, the relative viability (NCI-H460; first compound 0.1265 µM) was 0.0611, the relative viability (NCI-H460; first compound 0.4 µM) was 0.054 and the relative viability (NCI-H460; first compound 1.265 µM) was 0.0633. It also gave a relative viability (NCI-H460; first compound 4 µM) of 0.0701, a relative viability (NCI-H1792; first compound 0.04 µM) of 0.769 and a relative viability (NCI-H1792; first compound 0.1265 µM) of 0.825. It also gave a relative viability (NCI-H1792; first compound 0.4 µM) of 0.751, a relative viability (NCI-H1792; first compound 1.265 µM) of 0.832 and a relative viability (NCI-H1792; first compound 4 µM) of 0.76. The relative viability (NCI-H522; first compound 0.04 µM) was 0.967, the relative viability (NCI-H522; first compound 0.1265 µM) was 0.969 and the relative viability (NCI-H522; first compound 0.4 µM) was 1.01. It also gave a relative viability (NCI-H522; first compound 1.265 µM) of 0.841, a relative viability (NCI-H522; first compound 4 µM) of 0.783 and a relative viability (NCI-H1651; first compound 0.04 µM) of 0.499. For the same molecule, the relative viability (NCI-H1651; first compound 0.1265 µM) was 0.586, the relative viability (NCI-H1651; first compound 0.4 µM) was 0.622 and the relative viability (NCI-H1651; first compound 1.265 µM) was 0.538. It also gave a relative viability (NCI-H1651; first compound 4 µM) of 0.614, a relative viability (NCI-H650; first compound 0.04 µM) of 0.985 and a relative viability (NCI-H650; first compound 0.1265 µM) of 0.91. For the same molecule, the relative viability (NCI-H650; first compound 0.4 µM) was 0.844, the relative viability (NCI-H650; first compound 1.265 µM) was 0.896 and the relative viability (NCI-H650; first compound 4 µM) was 0.476. It also gave a relative viability (NCI-H2347; first compound 0.04 µM) of 0.413, a relative viability (NCI-H2347; first compound 0.1265 µM) of 0.399 and a relative viability (NCI-H2347; first compound 0.4 µM) of 0.433. For the same molecule, the relative viability (NCI-H2347; first compound 1.265 µM) was 0.424, the relative viability (NCI-H2347; first compound 4 µM) was 0.441 and the relative viability (NCI-H1355; first compound 0.04 µM) was 1.11. The relative viability (NCI-H1355; first compound 0.1265 µM) was 1.03, the relative viability (NCI-H1355; first compound 0.4 µM) was 0.726 and the relative viability (NCI-H1355; first compound 1.265 µM) was 1.04. For the same molecule, the relative viability (NCI-H1355; first compound 4 µM) was 0.685, the relative viability (LXF-289; first compound 0.04 µM) was 0.931 and the relative viability (LXF-289; first compound 0.1265 µM) was 0.933. The relative viability (LXF-289; first compound 0.4 µM) was 0.887, the relative viability (LXF-289; first compound 1.265 µM) was 0.93 and the relative viability (LXF-289; first compound 4 µM) was 0.926. It also gave a relative viability (NCI-H441; first compound 0.04 µM) of 0.28, a relative viability (NCI-H441; first compound 0.1265 µM) of 0.279 and a relative viability (NCI-H441; first compound 0.4 µM) of 0.229. It also gave a relative viability (NCI-H441; first compound 1.265 µM) of 0.276, a relative viability (NCI-H441; first compound 4 µM) of 0.258 and a relative viability (NCI-H2170; first compound 0.04 µM) of 0.286. The relative viability (NCI-H2170; first compound 0.1265 µM) was 0.28, the relative viability (NCI-H2170; first compound 0.4 µM) was 0.261 and the relative viability (NCI-H2170; first compound 1.265 µM) was 0.257. It also gave a relative viability (NCI-H2170; first compound 4 µM) of 0.249, a relative viability (PC-14; first compound 0.04 µM) of 0.124 and a relative viability (PC-14; first compound 0.1265 µM) of 0.114. The relative viability (PC-14; first compound 0.4 µM) was 0.0722, the relative viability (PC-14; first compound 1.265 µM) was 0.129 and the relative viability (PC-14; first compound 4 µM) was 0.074. For the same molecule, the relative viability (NCI-H520; first compound 0.04 µM) was 0.604, the relative viability (NCI-H520; first compound 0.1265 µM) was 0.592 and the relative viability (NCI-H520; first compound 0.4 µM) was 0.454. For the same molecule, the relative viability (NCI-H520; first compound 1.265 µM) was 0.737, the relative viability (NCI-H520; first compound 4 µM) was 0.61 and the relative viability (RERF-LC-KJ; first compound 0.04 µM) was 0.521. It also gave a relative viability (RERF-LC-KJ; first compound 0.1265 µM) of 0.509, a relative viability (RERF-LC-KJ; first compound 0.4 µM) of 0.448 and a relative viability (RERF-LC-KJ; first compound 1.265 µM) of 0.446. The relative viability (RERF-LC-KJ; first compound 4 µM) was 0.239, the relative viability (NCI-H1915; first compound 0.04 µM) was 0.471 and the relative viability (NCI-H1915; first compound 0.1265 µM) was 0.5. The relative viability (NCI-H1915; first compound 0.4 µM) was 0.352, the relative viability (NCI-H1915; first compound 1.265 µM) was 0.541 and the relative viability (NCI-H1915; first compound 4 µM) was 0.441. It also gave a relative viability (NCI-H596; first compound 0.04 µM) of 0.499, a relative viability (NCI-H596; first compound 0.1265 µM) of 0.548 and a relative viability (NCI-H596; first compound 0.4 µM) of 0.478. It also gave a relative viability (NCI-H596; first compound 1.265 µM) of 0.482, a relative viability (NCI-H596; first compound 4 µM) of 0.441 and a relative viability (SK-MES-1; first compound 0.04 µM) of 0.922. For the same molecule, the relative viability (SK-MES-1; first compound 0.1265 µM) was 0.923, the relative viability (SK-MES-1; first compound 0.4 µM) was 0.827 and the relative viability (SK-MES-1; first compound 1.265 µM) was 0.853. For the same molecule, the relative viability (SK-MES-1; first compound 4 µM) was 1, the relative viability (SW 900; first compound 0.04 µM) was 0.504 and the relative viability (SW 900; first compound 0.1265 µM) was 0.512. For the same molecule, the relative viability (SW 900; first compound 0.4 µM) was 0.46, the relative viability (SW 900; first compound 1.265 µM) was 0.477 and the relative viability (SW 900; first compound 4 µM) was 0.379. The relative viability (LCLC-103H; first compound 0.04 µM) was 0.443, the relative viability (LCLC-103H; first compound 0.1265 µM) was 0.505 and the relative viability (LCLC-103H; first compound 0.4 µM) was 0.462. It also gave a relative viability (LCLC-103H; first compound 1.265 µM) of 0.492, a relative viability (LCLC-103H; first compound 4 µM) of 0.33 and a relative viability (NCI-H661; first compound 0.04 µM) of 0.909. It also gave a relative viability (NCI-H661; first compound 0.1265 µM) of 0.931, a relative viability (NCI-H661; first compound 0.4 µM) of 0.883 and a relative viability (NCI-H661; first compound 1.265 µM) of 0.974. The relative viability (NCI-H661; first compound 4 µM) was 0.965, the relative viability (NCI-H1563; first compound 0.04 µM) was 0.798 and the relative viability (NCI-H1563; first compound 0.1265 µM) was 0.754. For the same molecule, the relative viability (NCI-H1563; first compound 0.4 µM) was 0.767, the relative viability (NCI-H1563; first compound 1.265 µM) was 0.652 and the relative viability (NCI-H1563; first compound 4 µM) was 0.973. The relative viability (NCI-H3122; first compound 0.04 µM) was 0.171, the relative viability (NCI-H3122; first compound 0.1265 µM) was 0.161 and the relative viability (NCI-H3122; first compound 0.4 µM) was 0.144. For the same molecule, the relative viability (NCI-H3122; first compound 1.265 µM) was 0.157, the relative viability (NCI-H3122; first compound 4 µM) was 0.115 and the relative viability (NCI-H1755; first compound 0.04 µM) was 0.446. The relative viability (NCI-H1755; first compound 0.1265 µM) was 0.54, the relative viability (NCI-H1755; first compound 0.4 µM) was 0.407 and the relative viability (NCI-H1755; first compound 1.265 µM) was 0.43. The relative viability (NCI-H1755; first compound 4 µM) was 0.447.
